Experimental data published in PubChem BioAssay (NCI).
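Cultured in 96-well plates, cells were exposed to test compound for 48 hours across five concentrations. Abbreviation: GI50, concentration required for 50% inhibition of growth. TGI: total growth inhibition.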

Tests used:
Test in all cases: NCI-60 cell line screen, 48 h; in the data active = GI50 below about 0.43 µM; inactive = the rest
DU-145 prostate = system: DU-145 prostate
K-562 leukemia = system: K-562 leukemia
TK-10 renal = system: TK-10 renal
SK-MEL-2 melanoma = system: SK-MEL-2 melanoma
MALME-3M melanoma = system: MALME-3M melanoma
SR leukemia = system: SR leukemia
ACHN renal = system: ACHN renal
HS 578T breast = system: HS 578T breast
MCF7 breast = system: MCF7 breast
UO-31 renal = system: UO-31 renal
U251 CNS = system: U251 CNS
HCC-2998 colon = system: HCC-2998 colon
NCI-H226 lung = system: NCI-H226 lung
HCT-15 colon = system: HCT-15 colon
SNB-19 CNS = system: SNB-19 CNS
SF-295 CNS = system: SF-295 CNS
UACC-62 melanoma = system: UACC-62 melanoma
A549 NSCLC = system: A549 NSCLC
SF-539 CNS = system: SF-539 CNS
OVCAR-5 ovarian = system: OVCAR-5 ovarian
SK-MEL-28 melanoma = system: SK-MEL-28 melanoma
RXF 393 renal = system: RXF 393 renal
CAKI-1 renal = system: CAKI-1 renal
A498 renal = system: A498 renal
BT-549 breast = system: BT-549 breast
SK-OV-3 ovarian = system: SK-OV-3 ovarian
OVCAR-4 ovarian = system: OVCAR-4 ovarian
HL-60(TB) leukemia = system: HL-60(TB) leukemia
OVCAR-3 ovarian = system: OVCAR-3 ovarian
SW-620 colon = system: SW-620 colon
MDA-MB-231 breast = system: MDA-MB-231 breast
HOP-92 NSCLC = system: HOP-92 NSCLC
NCI/ADR-RES ovarian = system: NCI/ADR-RES ovarian
COLO 205 colon = system: COLO 205 colon
HOP-62 NSCLC = system: HOP-62 NSCLC
SK-MEL-5 melanoma = system: SK-MEL-5 melanoma
SF-268 CNS = system: SF-268 CNS
IGROV1 ovarian = system: IGROV1 ovarian
SN12C renal = system: SN12C renal
M14 melanoma = system: M14 melanoma
NCI-H460 lung = system: NCI-H460 lung
CCRF-CEM leukemia = system: CCRF-CEM leukemia
UACC-257 melanoma = system: UACC-257 melanoma
786-0 renal = system: 786-0 renal
SNB-75 CNS = system: SNB-75 CNS
T-47D breast = system: T-47D breast
PC-3 prostate = system: PC-3 prostate
EKVX NSCLC = system: EKVX NSCLC
HT29 colon = system: HT29 colon
MOLT-4 leukemia = system: MOLT-4 leukemia
RPMI-8226 leukemia = system: RPMI-8226 leukemia
NCI-H23 lung = system: NCI-H23 lung
HCT-116 colon = system: HCT-116 colon
MDA-MB-435 = system: MDA-MB-435
LOX IMVI melanoma = system: LOX IMVI melanoma
OVCAR-8 ovarian = system: OVCAR-8 ovarian

COc1ccc2[nH]cc(-c3csc4nc(-c5ccccc5)cn34)c2c1
> 51.9 µM: TGI (MOLT-4 leukemia)
5.3 µM: TGI (HOP-92 NSCLC)
4.8 µM: TGI (BT-549 breast)
31.8 µM: TGI (MALME-3M melanoma)
12.1 µM: TGI (CAKI-1 renal)
4.77 µM: TGI (RXF 393 renal)
0.779 µM: TGI (SNB-75 CNS)
> 100 µM: TGI (DU-145 prostate) | TGI (K-562 leukemia) | TGI (SR leukemia) | TGI (MCF7 breast) | TGI (SNB-19 CNS) | TGI (OVCAR-5 ovarian) | TGI (OVCAR-4 ovarian) | TGI (HL-60(TB) leukemia) | TGI (SW-620 colon) | TGI (MDA-MB-231 breast) | TGI (IGROV1 ovarian) | TGI (SN12C renal) | TGI (M14 melanoma) | TGI (CCRF-CEM leukemia) | TGI (UACC-257 melanoma) | TGI (T-47D breast) | TGI (PC-3 prostate) | TGI (EKVX NSCLC)
> 80.8 µM: TGI (SF-268 CNS)
42.6 µM: TGI (TK-10 renal)
32 µM: TGI (UO-31 renal)
20.6 µM: TGI (ACHN renal)
active: GI50 (K-562 leukemia) 0.139 µM | GI50 (SK-MEL-2 melanoma) 0.291 µM | GI50 (SR leukemia) 0.066 µM | GI50 (HS 578T breast) 0.328 µM | GI50 (MCF7 breast) 0.276 µM | GI50 (U251 CNS) 0.401 µM | GI50 (HCT-15 colon) 0.242 µM | GI50 (SF-295 CNS) 0.395 µM | GI50 (UACC-62 melanoma) 0.327 µM | GI50 (SF-539 CNS) 0.359 µM | GI50 (CAKI-1 renal) 0.404 µM | GI50 (HL-60(TB) leukemia) 0.287 µM | GI50 (OVCAR-3 ovarian) 0.355 µM | GI50 (SW-620 colon) 0.36 µM | GI50 (HOP-92 NSCLC) 0.424 µM | GI50 (NCI/ADR-RES ovarian) 0.252 µM | GI50 (COLO 205 colon) 0.334 µM | GI50 (SK-MEL-5 melanoma) 0.407 µM | GI50 (M14 melanoma) 0.295 µM | GI50 (NCI-H460 lung) 0.374 µM | GI50 (CCRF-CEM leukemia) 0.248 µM | GI50 (SNB-75 CNS) 0.24 µM | GI50 (T-47D breast) 0.382 µM | GI50 (PC-3 prostate) 0.412 µM | GI50 (HT29 colon) 0.324 µM | GI50 (RPMI-8226 leukemia) 0.416 µM
> 88.4 µM: TGI (A549 NSCLC)
> 19.9 µM: TGI (786-0 renal)
3.64 µM: TGI (SK-MEL-5 melanoma)
10.3 µM: TGI (HS 578T breast)
1.32 µM: TGI (NCI/ADR-RES ovarian)
20.8 µM: TGI (UACC-62 melanoma)
19.1 µM: TGI (HOP-62 NSCLC)
> 90.2 µM: TGI (SK-MEL-28 melanoma)
inactive: GI50 (DU-145 prostate) 0.576 µM | GI50 (TK-10 renal) 6.97 µM | GI50 (MALME-3M melanoma) 0.492 µM | GI50 (ACHN renal) 0.612 µM | GI50 (UO-31 renal) 0.465 µM | GI50 (HCC-2998 colon) 0.602 µM | GI50 (NCI-H226 lung) 0.947 µM | GI50 (SNB-19 CNS) 0.616 µM | GI50 (A549 NSCLC) 0.891 µM | GI50 (OVCAR-5 ovarian) 0.709 µM | GI50 (SK-MEL-28 melanoma) 0.724 µM | GI50 (RXF 393 renal) 0.553 µM | GI50 (A498 renal) 3.73 µM | GI50 (BT-549 breast) 0.508 µM | GI50 (SK-OV-3 ovarian) 0.489 µM | GI50 (OVCAR-4 ovarian) 2.22 µM | GI50 (MDA-MB-231 breast) 0.524 µM | GI50 (HOP-62 NSCLC) 0.579 µM | GI50 (SF-268 CNS) 0.823 µM | GI50 (IGROV1 ovarian) 0.477 µM | GI50 (SN12C renal) 0.47 µM | GI50 (UACC-257 melanoma) 0.525 µM | GI50 (786-0 renal) 0.599 µM | GI50 (EKVX NSCLC) 0.804 µM | GI50 (MOLT-4 leukemia) 0.44 µM
1.12 µM: TGI (HT29 colon)
> 43.9 µM: TGI (SK-OV-3 ovarian)
1.83 µM: TGI (SF-539 CNS)
3.75 µM: TGI (HCC-2998 colon)
3.86 µM: TGI (RPMI-8226 leukemia)
> 23.1 µM: TGI (HCT-15 colon)
5.76 µM: TGI (NCI-H226 lung)
0.851 µM: TGI (SK-MEL-2 melanoma)
4.24 µM: TGI (SF-295 CNS)
1.15 µM: TGI (COLO 205 colon)
2.53 µM: TGI (NCI-H460 lung)
3.32 µM: TGI (OVCAR-3 ovarian)

Nc1nc(-c2cccc([N+](=O)[O-])c2)c(N=Nc2cccc([N+](=O)[O-])c2)s1
> 57.3 µM: TGI (SR leukemia)
> 100 µM: TGI (NCI-H23 lung) | TGI (DU-145 prostate) | TGI (TK-10 renal) | TGI (SK-MEL-2 melanoma) | TGI (MALME-3M melanoma) | TGI (ACHN renal) | TGI (HS 578T breast) | TGI (HCT-116 colon) | TGI (MDA-MB-435) | TGI (LOX IMVI melanoma) | TGI (UO-31 renal) | TGI (U251 CNS) | TGI (HCC-2998 colon) | TGI (NCI-H226 lung) | TGI (HCT-15 colon) | TGI (SNB-19 CNS) | TGI (SF-295 CNS) | TGI (UACC-62 melanoma) | TGI (SF-539 CNS) | TGI (OVCAR-5 ovarian) | TGI (SK-MEL-28 melanoma) | TGI (RXF 393 renal) | TGI (CAKI-1 renal) | TGI (A498 renal) | TGI (BT-549 breast) | TGI (SK-OV-3 ovarian) | TGI (OVCAR-3 ovarian) | TGI (SW-620 colon) | TGI (MDA-MB-231 breast) | TGI (HOP-92 NSCLC) | TGI (NCI/ADR-RES ovarian) | TGI (COLO 205 colon) | TGI (HOP-62 NSCLC) | TGI (SK-MEL-5 melanoma) | TGI (SF-268 CNS) | TGI (IGROV1 ovarian) | TGI (SN12C renal) | TGI (M14 melanoma) | TGI (CCRF-CEM leukemia) | TGI (UACC-257 melanoma) | TGI (786-0 renal) | TGI (SNB-75 CNS) | TGI (OVCAR-8 ovarian) | TGI (T-47D breast) | TGI (PC-3 prostate) | TGI (EKVX NSCLC) | TGI (HT29 colon) | TGI (MOLT-4 leukemia) | TGI (RPMI-8226 leukemia)
> 92.8 µM: TGI (HL-60(TB) leukemia)
> 65 µM: TGI (K-562 leukemia)
inactive: GI50 (NCI-H23 lung) > 100 µM | GI50 (DU-145 prostate) > 100 µM | GI50 (K-562 leukemia) 1.39 µM | GI50 (TK-10 renal) 46.5 µM | GI50 (SK-MEL-2 melanoma) > 92.8 µM | GI50 (MALME-3M melanoma) > 100 µM | GI50 (SR leukemia) 19.2 µM | GI50 (ACHN renal) > 100 µM | GI50 (HS 578T breast) > 100 µM | GI50 (HCT-116 colon) > 100 µM | GI50 (MDA-MB-435) > 100 µM | GI50 (LOX IMVI melanoma) > 100 µM | GI50 (UO-31 renal) > 100 µM | GI50 (U251 CNS) 4.29 µM | GI50 (HCC-2998 colon) > 100 µM | GI50 (NCI-H226 lung) > 100 µM | GI50 (HCT-15 colon) > 100 µM | GI50 (SNB-19 CNS) 57.9 µM | GI50 (SF-295 CNS) > 100 µM | GI50 (UACC-62 melanoma) > 100 µM | GI50 (SF-539 CNS) > 100 µM | GI50 (OVCAR-5 ovarian) > 100 µM | GI50 (SK-MEL-28 melanoma) > 100 µM | GI50 (RXF 393 renal) > 100 µM | GI50 (CAKI-1 renal) > 100 µM | GI50 (A498 renal) 33.1 µM | GI50 (BT-549 breast) 10.4 µM | GI50 (SK-OV-3 ovarian) > 100 µM | GI50 (HL-60(TB) leukemia) > 52.6 µM | GI50 (OVCAR-3 ovarian) > 100 µM | GI50 (SW-620 colon) > 100 µM | GI50 (MDA-MB-231 breast) 13.6 µM | GI50 (HOP-92 NSCLC) 3.79 µM | GI50 (NCI/ADR-RES ovarian) > 100 µM | GI50 (COLO 205 colon) > 100 µM | GI50 (HOP-62 NSCLC) 64.9 µM | GI50 (SK-MEL-5 melanoma) 56.9 µM | GI50 (SF-268 CNS) > 100 µM | GI50 (IGROV1 ovarian) > 100 µM | GI50 (SN12C renal) > 100 µM | GI50 (M14 melanoma) > 100 µM | GI50 (CCRF-CEM leukemia) 39.7 µM | GI50 (UACC-257 melanoma) > 100 µM | GI50 (786-0 renal) 63 µM | GI50 (SNB-75 CNS) 53 µM | GI50 (OVCAR-8 ovarian) > 100 µM | GI50 (T-47D breast) > 100 µM | GI50 (PC-3 prostate) > 27.2 µM | GI50 (EKVX NSCLC) > 78.5 µM | GI50 (HT29 colon) > 100 µM | GI50 (MOLT-4 leukemia) > 25.3 µM | GI50 (RPMI-8226 leukemia) > 100 µM
